# Paper PMC8468039, “Development of New Meridianin/Leucettine-Derived Hybrid Small Molecules as Nanomolar Multi-Kinase Inhibitors with Antitumor Activity” (Biomedicines, 2021)
# What was measured:
# Assay in all cases: In vitro kinase inhibition assay (HotSpot, Reaction Biology)
# Type in all cases: biochemical
# JAK3 = target: T1, JAK3 (Homo sapiens, UniProt P52333); conditions: single dose of 10 µM; read-out: Percent Inhibition, JAK3
# T1 construct: purchased Reaction Biology Corp
# Procedure: (§1) The in vitro kinase inhibition assay was carried out by Reaction Biology Corp. (Reaction Biology Corp., Chester, PA, USA) Kinase HotSpot^SM service (http://www.reactionbiology.com, accessed on 15 January 2021), following the previously reported methods. (For details, see Supplementary Material).
# (§2) As mentioned in the introduction, to get insights about the kinase inhibition profile of the hybrid small molecule 5a, an in vitro screening over a panel of 14 cancer-related kinases was carried out. Accordingly, 10 µM concentrations of compound 5a were used in a kinase inhibition assay over various kinase groups and families in the presence of 10 µM ATP using HotSpotSM technology. To get a comprehensive picture of the inhibitory activities of the tested compound (5a) against the kinase panel, data are illustrated in Table 1. […] Compound 5a was also able to suppress the kinase activity of the epidermal growth factor receptor (EGFR), platelet-derived growth factor receptor-alpha (PDGFRα), and cyclin-dependent kinase 2 (CDK2) with modest inhibition values of 26.99 ± 0.9, 24.0 ± 0.4, and 20.1 ± 0.1%, respectively. […] Several studies have confirmed direct relationships between the most affected kinases (FMS, LCK, LYN, and DAPK1) and different human disorders including cancer.
# (§3) 5. Protocol of Kinase assay
# (§4) Kinases inhibitory activities were assessed by the HotSpot assay platform, which contained specific kinase/substrate pairs along with required cofactors. Base reaction buffer: 20 mM Hepes (pH 7.5), 10 mM MgCl2, 1 mM EGTA, 0.02% Brij35, 0.02 mg/ml BSA, 0.1 mM Na3VO4, 2 mM DTT, 1% DMSO. Testing compounds were dissolved in 100% DMSO to specific concentration. The serial dilution was conducted by Integra Viaflo Assist in DMSO. The reaction mixture containing the examined compound and 33P-ATP was incubated at room temperature for 2h and radioactivity was detected by filter-binding method. Kinase activity data were expressed as the percent remaining kinase activity in test samples compared to vehicle (dimethyl sulfoxide) reactions. IC50 values and curve fits were obtained using Prism (GraphPad Software).
# (§5) 6. Biology raw data for IC50 determination
# (§6) Paper ID Cpd ID NSC Number
# PAK1 = target: T2, PAK1 (Homo sapiens, UniProt Q13153); conditions: single dose of 10 µM; read-out: Percent Inhibition, PAK1
# T2 construct: purchased Reaction Biology Corp
# Procedure: as §1, §2, §3, §4, §5, §6
# c-MER = target: T3, c-MER (Homo sapiens, UniProt Q12866); conditions: single dose of 10 µM; 10 µM ATP as printed; read-out: Percent Inhibition, c-MER
# T3 construct: purchased Reaction Biology Corp
# Procedure: as §1, §2, §3, §4, §5, §6
# c-MET = target: T4, c-MET (Homo sapiens, UniProt P08581); conditions: single dose of 10 µM; 10 µM ATP as printed; read-out: Percent Inhibition, c-MET
# T4 construct: purchased Reaction Biology Corp
# Procedure: as §1, §2, §3, §4, §5, §6
# T3 sequence (Q12866 21-999): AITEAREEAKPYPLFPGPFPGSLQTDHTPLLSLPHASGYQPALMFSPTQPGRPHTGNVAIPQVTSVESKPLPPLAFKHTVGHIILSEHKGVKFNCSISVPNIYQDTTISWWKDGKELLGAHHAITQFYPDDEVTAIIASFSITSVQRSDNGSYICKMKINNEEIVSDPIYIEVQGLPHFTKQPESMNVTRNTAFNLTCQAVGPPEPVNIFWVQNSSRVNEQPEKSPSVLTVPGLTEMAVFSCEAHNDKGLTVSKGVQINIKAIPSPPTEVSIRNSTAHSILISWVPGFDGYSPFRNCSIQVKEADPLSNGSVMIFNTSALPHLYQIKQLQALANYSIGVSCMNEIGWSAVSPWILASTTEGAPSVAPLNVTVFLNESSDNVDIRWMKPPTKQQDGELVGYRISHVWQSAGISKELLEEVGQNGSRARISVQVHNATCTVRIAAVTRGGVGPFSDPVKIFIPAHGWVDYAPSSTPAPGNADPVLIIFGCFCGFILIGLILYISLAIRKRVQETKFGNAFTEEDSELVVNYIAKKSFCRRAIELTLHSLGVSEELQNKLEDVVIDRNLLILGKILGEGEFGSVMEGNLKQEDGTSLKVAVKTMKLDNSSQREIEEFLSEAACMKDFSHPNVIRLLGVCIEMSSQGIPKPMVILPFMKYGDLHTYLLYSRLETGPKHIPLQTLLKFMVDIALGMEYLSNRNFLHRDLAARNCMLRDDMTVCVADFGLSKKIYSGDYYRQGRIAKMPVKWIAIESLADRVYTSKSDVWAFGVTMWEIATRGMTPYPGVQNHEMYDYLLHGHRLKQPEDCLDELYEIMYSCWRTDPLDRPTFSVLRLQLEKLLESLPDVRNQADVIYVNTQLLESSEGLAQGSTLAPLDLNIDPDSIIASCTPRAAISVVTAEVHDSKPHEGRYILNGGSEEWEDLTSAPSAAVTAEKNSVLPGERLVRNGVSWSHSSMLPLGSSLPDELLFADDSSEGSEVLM
# T1 sequence (P52333 whole entry): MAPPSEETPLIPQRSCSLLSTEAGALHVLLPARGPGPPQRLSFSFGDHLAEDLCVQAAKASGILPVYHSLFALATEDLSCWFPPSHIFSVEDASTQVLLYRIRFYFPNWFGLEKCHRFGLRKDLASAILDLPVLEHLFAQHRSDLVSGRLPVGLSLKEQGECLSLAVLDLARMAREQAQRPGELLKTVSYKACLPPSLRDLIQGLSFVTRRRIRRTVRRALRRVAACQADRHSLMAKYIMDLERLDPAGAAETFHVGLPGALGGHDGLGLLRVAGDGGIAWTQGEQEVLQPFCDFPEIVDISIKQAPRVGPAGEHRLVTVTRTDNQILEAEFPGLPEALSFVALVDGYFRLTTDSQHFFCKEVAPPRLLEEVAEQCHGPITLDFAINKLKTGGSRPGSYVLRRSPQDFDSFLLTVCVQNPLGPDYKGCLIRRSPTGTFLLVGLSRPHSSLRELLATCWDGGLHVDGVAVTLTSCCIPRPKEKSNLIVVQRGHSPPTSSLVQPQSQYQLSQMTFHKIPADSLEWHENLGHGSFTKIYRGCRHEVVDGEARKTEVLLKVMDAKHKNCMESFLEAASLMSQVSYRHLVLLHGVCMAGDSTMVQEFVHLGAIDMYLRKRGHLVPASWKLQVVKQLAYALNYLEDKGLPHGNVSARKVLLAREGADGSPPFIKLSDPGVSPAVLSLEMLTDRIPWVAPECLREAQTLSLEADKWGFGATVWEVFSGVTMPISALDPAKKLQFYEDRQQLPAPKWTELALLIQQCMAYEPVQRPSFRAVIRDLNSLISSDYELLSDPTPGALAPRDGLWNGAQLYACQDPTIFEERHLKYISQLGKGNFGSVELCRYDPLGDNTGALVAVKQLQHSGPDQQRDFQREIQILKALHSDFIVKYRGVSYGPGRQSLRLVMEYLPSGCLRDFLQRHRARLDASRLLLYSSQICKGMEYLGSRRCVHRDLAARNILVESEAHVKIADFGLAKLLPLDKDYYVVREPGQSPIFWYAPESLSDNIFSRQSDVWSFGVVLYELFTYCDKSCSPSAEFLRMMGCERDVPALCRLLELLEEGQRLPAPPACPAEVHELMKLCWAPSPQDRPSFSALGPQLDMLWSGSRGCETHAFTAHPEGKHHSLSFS
# T4 sequence (P08581 25-1390): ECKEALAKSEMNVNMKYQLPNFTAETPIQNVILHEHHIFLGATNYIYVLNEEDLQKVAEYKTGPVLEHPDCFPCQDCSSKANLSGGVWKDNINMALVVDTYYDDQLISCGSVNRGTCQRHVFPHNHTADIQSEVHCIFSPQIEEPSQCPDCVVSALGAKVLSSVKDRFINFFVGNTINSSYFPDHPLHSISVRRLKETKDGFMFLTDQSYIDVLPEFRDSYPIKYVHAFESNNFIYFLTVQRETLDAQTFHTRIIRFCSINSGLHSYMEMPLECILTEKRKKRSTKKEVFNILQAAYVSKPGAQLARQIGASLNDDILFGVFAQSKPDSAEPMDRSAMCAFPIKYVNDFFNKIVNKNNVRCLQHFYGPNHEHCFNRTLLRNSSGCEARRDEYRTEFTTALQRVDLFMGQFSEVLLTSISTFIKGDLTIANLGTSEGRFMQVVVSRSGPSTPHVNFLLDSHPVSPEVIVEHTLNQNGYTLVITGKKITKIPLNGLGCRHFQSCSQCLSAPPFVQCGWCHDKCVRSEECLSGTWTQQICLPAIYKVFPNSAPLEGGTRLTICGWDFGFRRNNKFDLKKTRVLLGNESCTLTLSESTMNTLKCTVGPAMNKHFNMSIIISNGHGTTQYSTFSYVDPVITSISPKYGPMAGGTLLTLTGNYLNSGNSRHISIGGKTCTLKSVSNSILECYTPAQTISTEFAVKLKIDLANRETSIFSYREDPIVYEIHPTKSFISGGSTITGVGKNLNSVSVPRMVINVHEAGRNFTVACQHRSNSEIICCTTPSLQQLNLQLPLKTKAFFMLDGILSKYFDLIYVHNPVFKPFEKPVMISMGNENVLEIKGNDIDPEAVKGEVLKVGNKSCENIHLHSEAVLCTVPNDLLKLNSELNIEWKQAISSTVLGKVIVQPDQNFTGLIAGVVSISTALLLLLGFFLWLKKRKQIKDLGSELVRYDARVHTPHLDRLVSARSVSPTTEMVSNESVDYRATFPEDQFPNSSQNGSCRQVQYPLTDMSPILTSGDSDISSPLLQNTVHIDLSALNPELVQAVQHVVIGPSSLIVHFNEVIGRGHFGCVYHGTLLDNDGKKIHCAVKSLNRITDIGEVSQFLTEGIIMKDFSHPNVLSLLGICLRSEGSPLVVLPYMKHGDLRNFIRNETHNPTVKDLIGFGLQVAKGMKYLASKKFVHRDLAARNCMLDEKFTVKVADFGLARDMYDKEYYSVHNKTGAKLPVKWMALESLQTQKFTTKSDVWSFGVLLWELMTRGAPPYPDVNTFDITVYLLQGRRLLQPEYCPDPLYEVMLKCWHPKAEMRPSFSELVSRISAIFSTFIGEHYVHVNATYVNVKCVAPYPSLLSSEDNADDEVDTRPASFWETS
# T2 sequence (Q13153 whole entry): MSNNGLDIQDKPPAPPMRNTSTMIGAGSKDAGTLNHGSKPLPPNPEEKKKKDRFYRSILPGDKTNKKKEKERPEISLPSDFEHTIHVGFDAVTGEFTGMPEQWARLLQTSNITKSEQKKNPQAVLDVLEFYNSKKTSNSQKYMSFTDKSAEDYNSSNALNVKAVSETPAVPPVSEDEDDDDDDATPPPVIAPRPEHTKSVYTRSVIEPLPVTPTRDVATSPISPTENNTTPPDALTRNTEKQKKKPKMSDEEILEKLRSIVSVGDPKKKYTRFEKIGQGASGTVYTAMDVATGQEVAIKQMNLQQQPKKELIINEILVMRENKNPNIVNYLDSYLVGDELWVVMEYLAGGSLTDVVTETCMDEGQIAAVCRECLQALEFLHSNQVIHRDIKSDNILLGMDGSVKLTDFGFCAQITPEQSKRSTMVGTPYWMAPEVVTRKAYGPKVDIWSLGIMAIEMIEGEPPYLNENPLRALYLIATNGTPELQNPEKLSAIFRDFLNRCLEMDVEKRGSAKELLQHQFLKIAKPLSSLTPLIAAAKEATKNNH
smiles,measurement,setting,value
"COc1ccc(Oc2nc(Nc3ccc(N4CCOCC4)cc3)ncc2NC(=O)c2ccc3c(c2)OCO3)cc1 [5a, N-(4-(4-Methoxyphenoxy)-2-((4-morpholinophenyl)amino)pyrimidin-5-yl)benzo[d][1,3]dioxole-5-carboxamide]",inhibition at 10 µM,JAK3,11.2 ± 1.2%
same,inhibition at 10 µM,PAK1,-29.1 ± 3.4%
same,inhibition at 10 µM,c-MER,4.4 ± 0.1%
same,inhibition at 10 µM,c-MET,12 ± 13.7%
